Here are results for two compounds from patent US8961937B2 (Korea Atomic Energy Research Institute, priority 2012, dated 2015).

The target of data set [1] is T1, intracellular Aβ aggregates of a SHSY5Y neuroblastoma cell (Homo sapiens, UniProt P05067).
T1 construct: a cell having unlabelled Aβ42 added thereto was sonicated with SDS; host or cells: exogenous peptide added to the SHSY5Y neuroblastoma cell culture
The data set is described as follows: Fluorescence imaging of intracellular Aβ aggregates in SHSY5Y cell extract. Type of data set: cell-based. The conditions noted are these: for fluorescent staining of extract of Aβ42-added SHSY5Y cells: cell cultured with unlabelled Aβ42, sonicated with SDS, homogenate reacted with 10 μM probe for 10 minutes; for fluorescent staining of extract of SHSY5Y cells grown without Aβ: culture without Aβ42 (negative control tissue). Here is the method: Fluorescence imaging of compound 14 was performed on intracellular Aβ aggregates of a SHSY5Y neuroblastoma cell. In order to measure intracellular uptake and aggregation of Aβ, 1 μM of Aβ42 (FITC-Aβ42) labelled with fluorescein isothiocyanate was added, and SHSY5Y cell was cultivated 3 days and imaged with fluorescence microscope. […] The conventional research reported that, after extracellular soluble Aβ is taken up, Aβ42 aggregates (>200 kDa) having a high molecular weight is formed. In order to determine whether the compound 14 is used as a fluorescence probe component for detecting intracellular Aβ aggregates, a cell having unlabelled Aβ42 added thereto was sonicated with SDS, and the homogenate was reacted with 10 μM of compound 14 for 10 minutes.

For data set [2], the target named is T2, Aβ40 aggregates (Homo sapiens, UniProt P05067).
T2 construct: agglomerated Aβ40 peptide (10 μM, 35° C., agglomerated in PBS buffer for 3 days.)
As to the kind of experiment: Apparent binding constant (Kd) by fluorescence titration with aggregated Aβ40 peptide. The following applies: 10 μM aggregated Aβ40 peptide, PBS, N = 3; read-out: Kd (mean ± SD). Here is the method:
Apparent binding constants (Kd) of the nine compounds were measured by using 10 μM aggregated Aβ40 peptide. Fluorescence intensity of respective probes of […], 0.5, 1, […], 5, and 10 μM dissolved in PBS and fluorescence intensity of a mixture with aggregates Aβ peptide were measured. […] Theoretically, a preferable fluorescence probe for Aβ aggregates should have high fluorescence reactivity and binding affinity.

In data set [3] the test system is Aβ aggregates of brain tissues of an AD mouse. The data set is described as follows: Fluorescence staining of brain sections of transgenic AD mouse (APP/PS1). The following applies: for staining of Aβ aggregates in brain section of transgenic AD mouse: 15-month aged APP/PS1 mouse brain section; for staining of brain tissue of control group mouse: control group mouse brain section. The procedure:
In order to evaluate whether 2-styrylpyridazine-3(2H)-one-based compound 14 can stain beta amyloid aggregates of brain tissues of an AD mouse, compound 14 was tested in a brain section of an 15-month aged transgenic AD mouse (APP/PS 1) model.

The target of data set [4] is T2, Aβ40 aggregates. As to the kind of experiment: In vitro fluorescence measurement before and after mixing with agglomerated Aβ40 peptide. The class given is binding.

Each structure is given as a SMILES string. “Also recorded” adds a separate entry of the source.

T1 sequence (P05067 672-713 limits assumed): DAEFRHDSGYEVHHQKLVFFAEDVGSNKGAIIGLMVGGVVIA
T2 sequence (P05067 672-711 limits assumed): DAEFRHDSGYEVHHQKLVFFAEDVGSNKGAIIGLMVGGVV

On to `CN(C)c1ccc(/C=C/n2ncc(Cl)c(Cl)c2=O)cc1` [Compound 14], for which, in data set [1], the “fluorescent staining of extract of Aβ42-added SHSY5Y cells” value is on record as “Fluorescence precipitate was obtained; also recorded: clearly stained” and the “fluorescent staining of extract of SHSY5Y cells grown without Aβ” value was “did not have fluorescent staining”. Further, the Kd at Aβ40 aggregates [2] is 1840 nM. For the same compound, in data set [3], the “staining of Aβ aggregates in brain section of transgenic AD mouse” value is listed as “clearly stained” and the “staining of brain tissue of control group mouse” value is “not stained”. This compound also had a λem at Aβ40 aggregates [4] (emission wavelength, 10 μM in PBS) of 636 nm. The same compound showed a λex on Aβ40 aggregates [4] (excitation wavelength, 10 μM in PBS) of 430 nm. In addition, the “Fold Increase (FAβ/F0)” value on Aβ40 aggregates [4] (fluorescence emission intensity at λem, 10 μM compound and 10 μM Aβ40 aggregates) stood at 40.84.

`Cc1ccc2c(c1)sc(-c1ccc(N(C)C)cc1)[n+]2C.[Cl-]` [thio-flavine T, reference compound]: in data set [1], the “fluorescent staining of extract of Aβ42-added SHSY5Y cells” value is “labelled pattern was identical to a pattern observed by using thio-flavine T” and the “fluorescent staining of extract of SHSY5Y cells grown without Aβ” value is given as “did not have fluorescent staining”. In addition, in data set [3], the “staining of Aβ aggregates in brain section of transgenic AD mouse” value was “stained” and the “staining of brain tissue of control group mouse” value is “not stained”.
